T1: P18 protein (human P18INK4C residues 1-168), recombinant (human, UniProt P42773 1-168)
T1 construct: Human P18 (P18INK4C, CDKN2C), residues 1-168, called full-length P18 protein in the results; The purification of this protein is not described; only that of His6-MCL1 is; also called CDKN2C; full-length P18 protein; source: E. coli BL21(DE3), recombinant
T1 sequence (looked up): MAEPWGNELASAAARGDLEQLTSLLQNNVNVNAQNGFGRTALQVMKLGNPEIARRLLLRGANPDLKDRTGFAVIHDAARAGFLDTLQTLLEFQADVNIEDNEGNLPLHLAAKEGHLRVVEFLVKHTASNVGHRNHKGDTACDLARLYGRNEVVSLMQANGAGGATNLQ

B1: Chimeric protein of P16-ANK1-3 and P18-ANK4-5 (P16 residues 1-113 and P18 residues 106-168) (other, human, UniProt P42771 1-113, looked up)
chain: MEPAAGSSMEPSADWLATAAARGRVEEVRALLEAGALPNAPNSYGRRPIQVMMMGSARVAELLLLHGAEPNCADPATLTRPVHDAAREGFLDTLVVLHRAGARLDVRDAWGRLPLHLAAKEGHLRVVEFLVKHTASNVGHRNHKGDTACDLARLYGRNEVVSLMQANGAGGATNLQ
notes: Human P18 (P18INK4C), residues 106-168 (ankyrin repeats 4-5 with the rBH3 motif); also called AC; chimera; source: E. coli BL21(DE3), recombinant
B2: P18-ANK4-5 (P18 residues 106-168) (domain or fragment, human, UniProt P42773 106-168, looked up)
chain: PLHLAAKEGHLRVVEFLVKHTASNVGHRNHKGDTACDLARLYGRNEVVSLMQANGAGGATNLQ
notes: Human P18 (P18INK4C), residues 106-168: ankyrin repeats 4 and 5, with the rBH3 motif; also called A4-5; source: E. coli BL21(DE3), recombinant
B3: His6-MCL1 (human MCL1 residues 163-326) (domain or fragment, UniProt Q07820 163-326, looked up)
chain: TPPPAEEEEDELYRQSLEIISRYLREQATGAKDTKPMGRSGATSRKALETLRRVGDGVQRNHETAFQGMLRKLDIKNEDDVKSLSRVMIHVFSDGVTNWGRIVTLISFGAFVAKHLKTINQESCIEPLAESITDVLVRTKRDWLVKQRGWDGFVEFFHVEDLEG
notes: Named His6-MCL1 in the FPA; called rMCL1 in the pull-downs; also called His-MCL1; recombinant MCL1; source: E. coli BL21(DE3), purified (nickel column, gel filtration); not shown: His6, N-terminal, kept

The subject of assay [1] is P18 protein in PC3 and WAC2 cells. Description: Western blot of P18 protein in treated cells. It is filed as cell-based, human. To be noted: for P18 protein level: Western blot, PC3 or WAC2 cells, 4 h, 10 µM LeuP, 30 µM BTZ or 10 µM LeuP + 30 µM BTZ (Fig. 5), BTZ 10, 20 or 30 µM in PC-3 (Fig. S4), N = 3. The protocol:
(§1) Whole-cell lysates were prepared by lysing cells on ice with 1× RIPA buffer (Boston BioProducts): 50 mM Tris-HCl pH 7.4, 150 mM NaCl, 1% NP40, 0.5% sodium deoxycholate and water (rest) supplemented with protease inhibitors (1 mM AEBSF, 0.8 μM aprotinin, 0.05 mM bestatin, 0.015 mM E-64, 0.02 mM leupeptin, 0.01 mM pepstatin A). Protein lysates were resolved by sodium dodecyl sulfate–polyacrylamide gel electrophoresis and transferred to polyvinylidene fluoride membrane in a wet transfer system for 1 h at 100 V. Membranes were incubated with anti-MCL1 Abs (D2W9E and D35A5, Cell Signaling), anti-BAX Abs (D2E11, Cell Signaling), anti-P18 Abs, DCS-118 from Cell Signaling, anti-β-actin Abs, PA1–21167, from Pierce (Rockford, IL, USA), and anti-CDK6 Ab, (C-21): sc-177 from Santa Cruz at a dilution of 1:1000, at 4 °C overnight. HRP-conjugated secondary Abs were used for detection using ECL2 reagent (Pierce). Immunoblots were visualized on Bio-Rad ChemiDoc MP imaging system.
Fig. 5 MCL1 impact on P18 degradation. Western blot of DMSO control (0.3%), 10 µM leupeptin (LeuP), 10 µM LeuP + 30µM bortezomib (BTZ), or 30 µM BTZ treated (a) PC3 cells or (b) WAC2 cells for 4 h. Quantification of band intensity shown below blot. All data are presented as mean ± S.D., N = 3. The statistical significance was determined by unpaired Student t-test where […].
Figure S4. Bortezomib inversely impacts MCL1 and P18. Western blot of bortezomib treated PC-3 cells (10, 20, or 30 uM) for 4 hours. Quantification of band intensity shown below blot. All data are presented as mean ± S.D., N=3. The statistical significance was determined by unpaired Student t-test where *P<0.05; **P<0.01; ***P<0.001.
In general terms: Immunoblotting shows a protein as a band on a membrane.

For assay [2], the system named is MCL1 protein in PC3 and WAC2 cells. Description: Western blot of MCL1 protein in treated cells. It is filed as cell-based, human. Particulars: PC3 or WAC2 cells, 4 h, 10 µM LeuP, 30 µM BTZ or 10 µM LeuP + 30 µM BTZ (Fig. 5), BTZ 10, 20 or 30 µM in PC-3 (Fig. S4), N = 3. As to the method: as §1
Fig. 5 MCL1 impact on P18 degradation. […] Quantification of band intensity shown below blot. […] The statistical significance was determined by unpaired Student t-test where […].
Figure S4. […] Quantification of band intensity shown below blot. […] The statistical significance was determined by unpaired Student t-test where *P<0.05; **P<0.01; ***P<0.001.

In assay [3] the test system is WAC2 cells (MCL1 overexpressed). Description: PI DNA content flow cytometry, cell cycle population of MCL1-overexpressing WAC2 cells treated with BH3 mimetics. Format: cell-based, human. To be noted: PI staining, N = 3, Fig. 6a; for effect on MCL1 overexpression induced decrease in G1 population: WAC2, MCL1 plasmid, then BH3 mimetic for 18 h, final DMSO 0.5%. On the technique in general: Flow cytometry measures light scatter and fluorescence of single cells or particles in a stream.

The test system of another assay is recombinant MCL1 (rMCL1). Description: In vitro pulldown of recombinant MCL1 by recombinant P18/P16 constructs. Format: binding, human. To be noted: recombinant P18 (IP) with rMCL1 (IB) with and without MCL1 inhibitor, Fig. 2c. The source says:
Human MCL1 [Uniprot: Q07820] (residues 163–326), human P18 [Uniprot: P42773] (residues 1–168), A1–4 (P18 residues 1–140), A4–5 (P18 residues 106–168), P16 [Uniprot: P42771] (residues 1–156), and AC (P16 residues 1–113 and P18 residues 106–168) were sequence-optimized for bacterial expression and cloned into the restriction sites of NdeI and HindIII in a pET28a vector (EMD Millipore) to incorporate a N-terminal hexa-histidine (His6) tag and transformed into BL21(DE3) E. Coli (New England Bio Labs). Cultures were grown under kanamycin selection in Luria broth to a 600 nm optical density of 0.6 and expression was induced by addition of 1 mM isopropyl β-D-1-thiogalactopyranoside (Thermo Fisher). Cultures were harvested 3–4 h after induction by centrifugation at 4700 × g. Resulting bacterial pellets were stored at −80 °C. His6-MCL1 bacterial pellets were re-suspended (10 mL/wet g of pellet) in Buffer A (1 × PBS, pH 6.8) with the addition of 1× lysozyme (0.25 mg/mL) (Thermo Fisher) and 1 protease inhibitor tablet (Pierce #88266), sonicated, and cleared at 14,000 × g. Resulting lysate was purified on NGC FPLC (Bio-Rad Laboratories) using a 1 mL HiTrap HP nickel column (GE Healthcare) equilibrated with Buffer A. Protein was eluted with a 2 mM–1000 mM imidazole gradient. His-MCL1 containing fractions, as identified by denaturing polyacrylamide gel electrophoresis, were further purified by gel filtration in Buffer B (1× PBS, pH 6.8) on a HiPrep 16/60 Sephacryl S-100 column (GE Healthcare). Resulting protein identity was confirmed by matrix-assisted laser desorption/ionization (MALDI) mass spectrometry.
Fig. 2 MCL1 binds specifically to P18 through C-terminal rBH3. a Western blot of endogenous coIP of MCL1 (IP) with P18 (IB), BAX (IB), and P18 (IB) in WAC2. b Western blot of in vitro pulldown of recombinant proteins (IP), ANK1–4, ANK4–5, P18, p16, and chimera, with recombinant MCL1 (rMCL1) (IB). Cartoon of the p16, P18, and chimera proteins are shown below the blot. rBH3-containing helix is highlighted in yellow (Residues: 150–161). c Western blot of in vitro pulldown of recombinant P18 (IP) with rMCL1 (IB) with and without MCL1 inhibitor S63845.
P18 is a member of the INK4 protein family [P16INK4A (P16, CDKN2A), P15INK4B (P15, CDKN2B), P18INK4C (P18, CDKN2C), and P19INK4D (P19, CDKN2D)] that regulate G1/S cell cycle progression with all INK4 proteins retaining homologous CDK4/6 inhibitory function. INK4 family proteins have homologous structures containing either four or five ankyrin (ANK) repeats, a helix-turn-helix structural unit known to mediate protein-protein interactions[15],[17]. […] The rBH3 in P18 resides in its fifth ankyrin repeat (residues 141–168). […] Based on prior stability studies of ankyrin repeats within INK4 family proteins[18],[19], we designed two truncations of P18 (Supplementary Table S1). The first, P18-ANK1–4 (ANK1–4), removes the rBH3-containing fifth ankyrin repeat. The second, P18-ANK4–5 (ANK4–5), retains the rBH3 domain as well as ankyrin repeat 4 to facilitate folding.

Assay [4] addresses B3. In words: pull-down; in vitro pulldown of recombinant P18, P16, truncated and chimeric proteins (IP) with recombinant MCL1 (IB). To be noted: both partners purified.
For assay [5], the target named is T1, P18 protein (human P18INK4C residues …). Described as above. Particulars: both partners purified.

Consider `CC(=O)N[C@@H](CC(C)C)C(=O)N[C@@H](CC(C)C)C(=O)N[C@H](C=O)CCCNC(=N)N` [leupeptin], for which the P18 protein level entry in assay [1] was “marginal to no impact”. In assay [2], the MCL1 protein level result is “marginal to no impact”.
Turning to `CC1(C)CCC(CN2CCN(c3ccc(C(=O)NS(=O)(=O)c4ccc(NCC5CCOCC5)c([N+](=O)[O-])c4)c(Oc4cnc5[nH]ccc5c4)c3)CC2)=C(c2ccc(Cl)cc2)C1` [ABT-199], in assay [3] (WAC2, MCL1 overexpressed, BH3 mimetic 18 h), the “impact on sub-G1 cell population” value was “more significant impact on the sub-G1 cell population”. In assay [3], the “effect on MCL1 overexpression induced decrease in G1 population” value is listed as “no impact on the change in G1 population”.
In the case of `Cc1c(-c2c(-c3ccc(F)o3)sc3ncnc(O[C@H](Cc4ccccc4OCc4ccnn4CC(F)(F)F)C(=O)O)c23)ccc(OCCN2CCN(C)CC2)c1Cl` [S63845], the “disruption of P18 pulldown of MCL1” value with recombinant MCL1 (rMCL1) is on record as “suppressed the ability of P18 to pull-down MCL1”. Further, the “effect on MCL1 overexpression induced decrease in G1 population” value in assay [3] is given as “rescued the MCL1 overexpression induced decrease in G1 population back to control levels”.
In the case of `CC(C)C[C@H](NC(=O)[C@H](Cc1ccccc1)NC(=O)c1cnccn1)B(O)O` [bortezomib], the P18 protein level entry in assay [1] is given as “decrease in P18 protein”. Moreover, the “effect of bortezomib on MCL1-induced loss of P18 protein” value in assay [1] (proteasome inhibitor bortezomib, Fig. 5 and Fig. S4) is “does not rescue this effect”. The MCL1 protein level entry in assay [2] is listed as “increase in MCL1 protein”.
As to B1, the binding result in assay [4] is on record as “binds”.
The same measure, in the same setting: to B2 belongs “binds”.
Consider B3, for which, in assay [5], the binding result is recorded as “binds”.

The record behind these values is PMC7048787, “MCL1 binding to the reverse BH3 motif of P18INK4C couples cell survival to cell proliferation” (Cell Death & Disease, 2020).
